The record followed here is article PMC10058229, “Diverse cytomotive actins and tubulins share a polymerization switch mechanism conferring robust dynamics” (Science Advances, 2023).

In the assay the target is T1, BtubA*B (Prosthecobacter dejongeii, UniProt A0A7W7YIU5+A0A7W7YJ10, A0A7W7YIU5:R284G/A0A7W7YIU5:K286D/A0A7W7YIU5:F287G).
T1 construct: gene HNQ64_001272; BtubA M-loop triple mutant coexpressed with BtubB in E. coli C41(DE3); no tag mentioned; single protofilament polymer; Methods once print R286D instead of K286D
T1 sequence (A0A7W7YIU5 1-473 R284G/K286D/F287G): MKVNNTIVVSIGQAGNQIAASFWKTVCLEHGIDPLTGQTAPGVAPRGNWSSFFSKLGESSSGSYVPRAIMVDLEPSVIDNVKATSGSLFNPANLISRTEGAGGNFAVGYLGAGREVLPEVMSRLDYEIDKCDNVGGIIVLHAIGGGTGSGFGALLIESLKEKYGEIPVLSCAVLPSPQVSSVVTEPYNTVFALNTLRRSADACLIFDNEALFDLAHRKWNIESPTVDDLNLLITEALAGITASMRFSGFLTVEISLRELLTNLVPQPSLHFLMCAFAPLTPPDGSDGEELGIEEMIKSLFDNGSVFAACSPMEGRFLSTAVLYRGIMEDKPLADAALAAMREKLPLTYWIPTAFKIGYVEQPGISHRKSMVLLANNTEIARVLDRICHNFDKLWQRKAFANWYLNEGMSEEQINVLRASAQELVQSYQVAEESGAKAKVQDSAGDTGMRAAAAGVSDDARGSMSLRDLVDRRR
T1 sequence (A0A7W7YJ10 1-426): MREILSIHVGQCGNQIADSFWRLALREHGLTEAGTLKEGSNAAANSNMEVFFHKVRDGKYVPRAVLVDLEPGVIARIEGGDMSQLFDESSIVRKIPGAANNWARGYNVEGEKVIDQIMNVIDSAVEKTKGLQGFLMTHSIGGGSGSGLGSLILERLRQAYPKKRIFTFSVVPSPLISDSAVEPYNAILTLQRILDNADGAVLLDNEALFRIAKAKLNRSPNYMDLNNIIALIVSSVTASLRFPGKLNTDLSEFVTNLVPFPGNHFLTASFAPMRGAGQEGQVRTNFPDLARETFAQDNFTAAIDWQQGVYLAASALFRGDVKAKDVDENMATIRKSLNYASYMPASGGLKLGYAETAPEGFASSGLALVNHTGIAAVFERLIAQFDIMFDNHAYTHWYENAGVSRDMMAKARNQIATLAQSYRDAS
The experiment in a line: polymerization seen by cryo-EM (~[…] Å map). In kind it is biochemical. To be noted: 5 mM GTP, 5 mM magnesium acetate, pH 7.7, 20 °C; nucleotide not resolved.

`Nc1nc2c(ncn2[C@@H]2O[C@H](COP(=O)(O)OP(=O)(O)OP(=O)(O)O)[C@@H](O)[C@H]2O)c(=O)[nH]1` [GTP]: the “polymerization seen by cryo-EM (~8 Å map)” value was “BtubA*B polymerizes in the presence of GTP and GMPCPP to form straight single protofilaments”.
